Consider 13 molecules from ChEMBL document CHEMBL1145365, “The discovery of long acting beta2-adrenoreceptor agonists” (Bioorg Med Chem Lett, 2007).

Data set [1] can be described thus: Distribution coefficient, log D of the compound. To be noted: octanol/water.
Data set [2] has as its target Beta-2 adrenergic receptor (Cavia porcellus) (UniProt Q8K4Z4). In words: Effect on guinea pig trachea model assessed as duration of muscle tone. The format is functional, tissue-based. To be noted: Muscle tissue.
Data set [3] in a line: in vitro. Conditions: human, Caco-2, pH 7.4.
Description: Permeability from apical to basolateral side of the Caco-2 cell membrane at 25 uM in pH 7.4
Data set [4] concerns the target Beta-2 adrenergic receptor (Cavia porcellus) (UniProt Q8K4Z4). Briefly: Agonist potency at beta-2 adrenoceptor in guinea pig trachea model relative to salmeterol. The format is functional, tissue-based.
The target in data set [5] is Beta-2 adrenergic receptor (Homo sapiens, UniProt P07550).
Description: Agonist activity at human recombinant beta-2 adrenoceptor expressed in CHO cells assessed as elevation of cAMP
The nature of data set [6]: Half life in human liver microsome at 1 uM.
The nature of data set [7]: Volume of distribution in iv dosed rat. To be noted: in vivo, read-out: Vdss. Type of data set: ADME, organism-based.
Data set [8] can be described thus: Clearance in iv dosed rat. Conditions: in vivo. The format is ADME, organism-based.
Data set [9] can be described thus: Half life in iv dosed rat. Type of data set: ADME, organism-based. To be noted: in vivo.

pEC50: −log10 of the molar value.

Sequence of Beta-2 adrenergic receptor (P07550 whole entry): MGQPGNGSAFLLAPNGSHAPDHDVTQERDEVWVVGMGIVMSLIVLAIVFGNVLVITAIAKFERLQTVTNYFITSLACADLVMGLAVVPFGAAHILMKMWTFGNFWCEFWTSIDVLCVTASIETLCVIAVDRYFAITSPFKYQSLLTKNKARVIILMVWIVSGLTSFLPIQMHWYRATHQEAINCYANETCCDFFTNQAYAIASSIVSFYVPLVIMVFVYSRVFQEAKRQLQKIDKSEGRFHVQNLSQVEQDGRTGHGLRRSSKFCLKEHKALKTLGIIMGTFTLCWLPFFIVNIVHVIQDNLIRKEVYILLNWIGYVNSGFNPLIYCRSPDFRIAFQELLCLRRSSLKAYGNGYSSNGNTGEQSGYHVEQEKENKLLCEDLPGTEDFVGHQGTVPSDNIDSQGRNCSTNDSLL
Sequence of Beta-2 adrenergic receptor (Cavia porcellus) (Q8K4Z4 whole entry, looked up): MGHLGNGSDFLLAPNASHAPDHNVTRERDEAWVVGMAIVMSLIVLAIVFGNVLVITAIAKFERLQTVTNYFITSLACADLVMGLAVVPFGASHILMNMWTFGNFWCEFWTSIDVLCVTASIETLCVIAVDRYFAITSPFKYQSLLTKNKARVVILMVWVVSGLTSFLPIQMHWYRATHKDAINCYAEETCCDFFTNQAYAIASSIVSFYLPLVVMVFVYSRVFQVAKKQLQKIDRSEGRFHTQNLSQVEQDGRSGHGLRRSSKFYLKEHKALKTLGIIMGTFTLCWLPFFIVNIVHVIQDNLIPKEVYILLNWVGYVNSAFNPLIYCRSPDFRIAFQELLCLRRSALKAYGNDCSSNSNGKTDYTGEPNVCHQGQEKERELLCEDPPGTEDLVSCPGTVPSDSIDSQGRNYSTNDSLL

Take `C[C@H](Cc1cccc(CC(=O)NC2Cc3ccccc3C2)c1)NC[C@H](O)c1ccc(O)c(CO)c1`: the logD in [1] worked out at 1.6. Besides, in data set [2], the TIME was determined as 5.4 h. In data set [3], this molecule came in with a Papp A→B at 25 µM of 1 ×10⁻⁶ cm/s. The molecule also displayed an Activity in data set [4] of 0.1.
In data set [5], `CC(C)(Cc1cccc(CC(=O)NCc2ccccc2)c1)NC[C@H](O)c1ccc(O)c(CO)c1` showed a pEC50 of 10.70. Further, the logD in [1] was found to be 1.
In the case of `C[C@H](Cc1cccc(CC(=O)NCc2ccccc2)c1)NC[C@H](O)c1ccc(O)c(CO)c1`, the negative logarithm of the EC50 (pEC50) in data set [5] is 10.02. This molecule also registered a logD in data set [1] of 0.8.
In the case of `C[C@H](Cc1cccc(CC(=O)NCc2cc(C(F)(F)F)ccc2F)c1)NC[C@H](O)c1ccc(O)c(CO)c1`, the TIME in data set [2] was determined as 6.6 h. The same molecule displayed a half-life at 1 µM in [6] (microsomes) of 9 min. Moreover, the Activity in data set [4] stood at 0.9.
As to `O=C(Cc1cccc(CCNC[C@H](O)c2ccc(O)c(CO)c2)c1)NCc1ccccc1`, in [5], the pEC50 was 10.02. In data set [1], the logD was 0.4.
Consider `OCc1cc([C@@H](O)CNCCCCCCOCCCCc2ccccc2)ccc1O` [SALMETEROL], for which the Vd in data set [7] turned out to be 16.6 L/kg. The same molecule came in with a logD in data set [1] of 2.5. Moreover, in data set [4], the Activity was found to be 1.
In data set [1], `Cc1ccc(CNC(=O)Cc2cccc(C[C@@H](C)NC[C@H](O)c3ccc(O)c(CO)c3)c2)cc1C` showed a logD of 2.2. Moreover, the TIME in [2] is 4.6 h. The molecule also yielded a half-life at 1 µM in [6] (liver microsomes) of 10 min. Moreover, the Activity in data set [4] stood at 0.5.
On to `C[C@H](Cc1cccc(CC(=O)NCc2c(F)cccc2Cl)c1)NC[C@H](O)c1ccc(O)c(CO)c1`, for which the TIME in data set [2] stood at 5.2 h. Moreover, the Activity in data set [4] was determined as 0.07.
For the molecule `C[C@H](Cc1cccc(CC(=O)NCc2cc(Cl)cc(Cl)c2)c1)NC[C@H](O)c1ccc(O)c(CO)c1`, in data set [1], the log distribution coefficient (logD) turned out to be 2.3. Besides, the TIME in [2] was 7.2 h. The apical-to-basolateral permeability (Papp A→B) at 25 µM in data set [3] amounted to 1 ×10⁻⁶ cm/s. In addition, in data set [4], the Activity worked out at 0.5.
Take `C[C@H](Cc1cccc(CC(=O)NCc2cccc3ccccc23)c1)NC[C@H](O)c1ccc(O)c(CO)c1`: the logD in [1] came out at 1.5. Moreover, the TIME in [2] amounted to 3.9 h. The half-life at 1 µM in data set [6] (liver microsomes) was 2 min. The molecule also returned an Activity in [4] of 1.
Take `COc1cccc(OC)c1CNC(=O)Cc1cccc(C[C@@H](C)NC[C@H](O)c2ccc(O)c(CO)c2)c1`: in data set [1], the logD was 0.8. The TIME in data set [2] was 1.5 h. Moreover, the Activity in [4] came to 0.3.
The molecule `C[C@H](Cc1cccc(CC(=O)NCc2ccc(Cl)c(Cl)c2)c1)NC[C@H](O)c1ccc(O)c(CO)c1` registered a clearance in [8] of 123 mL/min/kg. The same molecule showed a half-life in data set [9] of 90 min. The Vd in data set [7] was 16.6 L/kg. The molecule also had a log distribution coefficient (logD) in [1] of 2.6. Besides, the TIME in data set [2] is 9 h. For the same molecule, the Papp A→B at 25 µM in [3] worked out at 1 ×10⁻⁶ cm/s. For the same molecule, in data set [6] (liver microsomes), the half-life at 1 µM is 4 min. Also, the Activity in [4] was 0.4.
`C[C@H](Cc1cccc(CC(=O)NCc2ccc(OC(F)(F)F)cc2)c1)NC[C@H](O)c1ccc(O)c(CO)c1` displayed a logD in [1] of 2.4. The TIME in data set [2] stood at 8.1 h. Besides, in data set [6] (liver microsomes), the half-life at 1 µM is 15 min. In [4], the Activity turned out to be 1.
